In US20090238852A1, “METHODS FOR CONTROLLING INTRACELLULAR CALCIUM LEVELS ASSOCIATED WITH AN ISCHEMIC EVENT” (University of Utah Research Foundation, priority 2008, published 2009):

Tested on: rabbit ventricular myocytes
Assay: Intracellular sodium [Na^+]i in ventricular myocytes during PMI, Sodium Green flow cytometry
Type: cell-based
Conditions: PMI + ODSH 100 μg/mL; n = 7; PMI alone 11.16 ± 0.90, Hepes 6.04 ± 0.25
Description: In these studies, intracellular calcium concentration [Ca^++]i was measured by flow cytometry. Measurement of isolated mouse and rabbit ventricular myocyte [Ca^2+]i and [Na^+]i by flow cytometry has been described (Zhang et al., J. Cardiovasc. Pharmacol. 51: 443-449 (2008); Li et al., J. Mol. Cell. Cardiol. 33: 2145-2155 (2001)). [Ca^++]i was measured with the Ca^++ sensitive fluorescent probe, Fluo 3-AM (Molecular Probes, Eugene, Oreg.), using a FACScan (Becton-Dickinson, MA). The cells were exposed to 4 μmol/L Fluo-3 AM for 30 min at 37° C. The cells were then separated into aliquots. After 40 min of wash, the cells were exposed to paced metabolic ischemia (MI) for 45 min at 37° C. Metabolic ischemia was accomplished by incubating cells in a glucose-free MKRBB solution (pH 7.40) containing 2 mmol/L sodium cyanide (NaCN) to impair mitochondrial and glycolytic generation of ATP. […] Approximately 2×10^3 myocytes were analyzed to calculate average emission fluorescence intensity in each sample. […] Only those cells with low fluorescence intensity at 670 nm (PI-negative cells or viable cells) were included in the comparative analysis of [Ca^++]i. The sample [Ca^2+]i values were calculated by Mn^2+ quenching (Sugishita et al, 2001) and [Na^+]i values by comparison with a standard curve of varied [Na^+]i versus Na Green fluorescence. […] Results were expressed as means±SEM. […]

Work on 2-O, 3-O desulfated heparin [ODSH] yielded a [Na^+]i of 7.85 ± 0.45 mM.
